Assay results from PubChem BioAssay (NCI).
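Five concentrations, 48 hours, 96-well plates. Definition used: TGI = concentration required for complete inhibition of growth.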

Tests used:
Test in all cases: inhibition of tumour cell growth, NCI panel, 48 h
[1] = test system: NCI-H23 lung
[2] = test system: SR leukemia
[3] = test system: OVCAR-5 ovarian
[4] = test system: OVCAR-8 ovarian
[5] = test system: DLD-1 colon
[6] = test system: SK-MEL-28 melanoma
[7] = test system: XF 498 CNS
[8] = test system: HCT-116 colon
[9] = test system: CAKI-1 renal
[10] = test system: SN12C renal
[11] = test system: UACC-62 melanoma
[12] = test system: SNB-75 CNS
[13] = test system: U251 CNS
[14] = test system: NCI-H522 lung
[15] = test system: DMS 114 small cell lung
[16] = test system: SK-MEL-2 melanoma
[17] = test system: A549 NSCLC
[18] = test system: NCI-H460 lung
[19] = test system: IGROV1 ovarian
[20] = test system: M19-MEL melanoma
[21] = test system: SF-268 CNS
[22] = test system: K-562 leukemia
[23] = test system: UACC-257 melanoma
[24] = test system: HCC-2998 colon
[25] = test system: SK-MEL-5 melanoma
[26] = test system: SNB-19 CNS
[27] = test system: OVCAR-4 ovarian
[28] = test system: HL-60(TB) leukemia
[29] = test system: 786-0 renal
[30] = test system: DMS 273 small cell lung
[31] = test system: RPMI-8226 leukemia
[32] = test system: UO-31 renal
[33] = test system: SF-295 CNS
[34] = test system: CCRF-CEM leukemia
[35] = test system: TK-10 renal
[36] = test system: ACHN renal
[37] = test system: HOP-92 NSCLC
[38] = test system: A498 renal
[39] = test system: LXFL 529 NSCLC
[40] = test system: LOX IMVI melanoma
[41] = test system: M14 melanoma
[42] = test system: SNB-78 CNS
[43] = test system: NCI-H226 lung
[44] = test system: SW-620 colon
[45] = test system: RXF 393 renal
[46] = test system: OVCAR-3 ovarian
[47] = test system: KM20L2 colon
[48] = test system: MALME-3M melanoma
[49] = test system: HT29 colon
[50] = test system: SF-539 CNS
[51] = test system: MOLT-4 leukemia
[52] = test system: HCT-15 colon
[53] = test system: EKVX NSCLC
[54] = test system: COLO 205 colon
[55] = test system: SK-OV-3 ovarian
[56] = test system: HOP-62 NSCLC
[57] = test system: KM12 colon
[58] = test system: HOP-18 NSCLC

Measured: TGI

CCOc1ccc(N=C2NC(=O)C(CC(=O)Nc3ccccc3[N+](=O)[O-])S2)cc1 (configuration not stated)
> 100 µM: [1] | [2] | [3] | [4] | [5] | [6] | [7] | [8] | [9] | [10] | [11] | [12] | [13] | [14] | [15] | [16] | [17] | [18] | [19] | [20] | [21] | [22] | [23] | [24] | [25] | [26] | [27] | [28] | [29] | [30] | [31] | [32] | [33] | [34] | [35] | [36] | [37] | [38] | [39] | [40] | [41] | [42] | [43] | [44] | [45] | [46] | [47] | [48] | [49] | [50] | [51] | [52] | [53]

CCOC(=O)C1Cc2ccc3c4c(ccc(c24)C1)CC(C(=O)OCC)C3
> 100 µM: [1] | [2] | [3] | [4] | [5] | [6] | [7] | [8] | [10] | [11] | [12] | [13] | [54] | [14] | [15] | [16] | [17] | [19] | [20] | [21] | [22] | [23] | [24] | [25] | [26] | [28] | [29] | [30] | [31] | [55] | [32] | [33] | [34] | [56] | [35] | [36] | [37] | [38] | [40] | [41] | [42] | [57] | [43] | [58] | [44] | [45] | [46] | [47] | [48] | [49] | [50] | [51] | [52] | [53]
